One test has as its target LXRβ (Homo sapiens (Human), UniProt P55055). In words: In vitro assay LXRβ: PathHunter NHR CHO cells, LXRβ / Steroid Receptor Co-activator Peptide enzyme fragment complementation. Particulars: PathHunter NHR CHO cells, full-length human LXRβ and SRCP, chemiluminescent signal; read-out: LXRβ PPI. It counts as cell-based. In a few lines: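 Co-activator recruitment measured by chemiluminescence after signal generation. The CHO line carries full-length human LXRβ tagged with ProLink and an SRCP–enzyme acceptor fusion in the nucleus; cells sat overnight at 37° C before testing, in charcoal-dextran filtered serum medium with 1% final vehicle.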

The target of the next test is SREBP-2 (Homo sapiens (Human), UniProt Q12772). In words: In vitro assay SREBP-2: PathHunter U2OS SREBP-2 Nuclear Translocation Cell Line, U18666A-stimulated. Type of test: cell-based. The note with it: PathHunter U2OS SREBP-2 nuclear translocation cells, U18666A 10 μM, overnight (16 hours).

Chain of LXRβ (P55055 whole entry, the tested form may be a part): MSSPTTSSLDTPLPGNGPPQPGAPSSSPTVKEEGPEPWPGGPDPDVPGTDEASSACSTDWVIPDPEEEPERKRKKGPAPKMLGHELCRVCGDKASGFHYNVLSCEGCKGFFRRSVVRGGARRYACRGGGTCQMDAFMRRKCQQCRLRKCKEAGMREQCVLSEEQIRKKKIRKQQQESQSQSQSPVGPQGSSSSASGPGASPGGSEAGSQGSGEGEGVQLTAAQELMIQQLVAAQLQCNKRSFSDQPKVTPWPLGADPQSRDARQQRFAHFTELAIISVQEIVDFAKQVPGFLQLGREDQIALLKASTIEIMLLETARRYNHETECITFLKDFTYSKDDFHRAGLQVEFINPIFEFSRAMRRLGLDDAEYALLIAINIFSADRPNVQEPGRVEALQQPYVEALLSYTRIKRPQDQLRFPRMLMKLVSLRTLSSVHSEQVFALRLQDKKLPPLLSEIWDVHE

Take `C=CCN1C[C@@H]2CON(C(=O)CC[C@@H](C)[C@H]3CC[C@H]4[C@@H]5CC=C6C[C@@H](O)CC[C@]6(C)[C@H]5CC[C@]34C)[C@@H]2C1` [Example 46, (R)-1-((3aS,6aS)-5-allylhexahydro-1H-pyrrolo[3,4-c]isoxazol-1-yl)-4-((3S,8S,9S,10R,13R,14S,17R)-3-hydroxy-10,13-dimethyl-2,3,4,7,8,9,10,11,12,13,14,15,16,17-tetradecahydro-1H-cyclopenta[a]phenanthren-17-yl)pentan-1-one]: the EC50 at LXRβ was greater than 10000 nM. The same molecule showed a half-maximal inhibitory concentration (IC50) on SREBP-2 of 250 to 1000 nM.

Take `C[C@H](CCC(=O)N1CCC(O)(C2CC2)CC1)[C@H]1CC[C@H]2[C@@H]3CC=C4C[C@@H](O)CC[C@]4(C)[C@H]3CC[C@]12C` [Example 193, (R)-1-(4-cyclopropyl-4-hydroxypiperidin-1-yl)-4-((3S,8S,9S,10R,13R,14S,17R)-3-hydroxy-10,13-dimethyl-2,3,4,7,8,9,10,11,12,13,14,15,16,17-tetradecahydro-1H-cyclopenta[a]phenanthren-17-yl)pentan-1-one]: the EC50 at LXRβ is less than 250 nM. Besides, on SREBP-2, the half-maximal inhibitory concentration (IC50) is less than 250 nM.

`C[C@H](CCC(=O)N1CCN(C(=O)OC2CC2)CC1)[C@H]1CC[C@H]2[C@@H]3CC=C4C[C@@H](O)CC[C@]4(C)[C@H]3CC[C@]12C` [Example 340, cyclopropyl4-[(4R)-4-[(1R,3aS,3bS,7S,9aR,9bS,11aR)-7-hydroxy-9a,11a-dimethyl-1H,2H,3H,3aH,3bH,4H,6H,7H,8H,9H,9aH,9bH,10H,11H,11aH-cyclopenta[a]phenanthren-1-yl]pentanoyl]piperazine-1-carboxylate]: the EC50 on LXRβ was greater than 10000 nM. For the same molecule, at SREBP-2, the IC50 is less than 250 nM.

On to `C[C@H](COc1cccc(CO)n1)[C@H]1CC[C@H]2[C@@H]3CC=C4C[C@@H](O)CC[C@]4(C)[C@H]3CC[C@]12C` [Example 260, (3S,8S,9S,10R,13S,14S,17R)-17-((S)-1-((6-(hydroxymethyl)pyridin-2-yl)oxy)propan-2-yl)-10,13-dimethyl-2,3,4,7,8,9,10,11,12,13,14,15,16,17-tetradecahydro-1H-cyclopenta[a]phenanthren-3-ol], for which the EC50 on LXRβ is greater than 10000 nM. This molecule came in with an IC50 against SREBP-2 of less than 250 nM.

For `C=CCN1C[C@H]2CON(C(=O)CC[C@@H](C)[C@H]3CC[C@H]4[C@@H]5CC=C6C[C@@H](O)CC[C@]6(C)[C@H]5CC[C@]34C)[C@H]2C1` [Example 44, (R)-1-((3aR,6aR)-5-allylhexahydro-1H-pyrrolo[3,4-c]isoxazol-1-yl)-4-((3S,8S,9S,10R,13R,14S,17R)-3-hydroxy-10,13-dimethyl-2,3,4,7,8,9,10,11,12,13,14,15,16,17-tetradecahydro-1H-cyclopenta[a]phenanthren-17-yl)pentan-1-one], the EC50 on LXRβ was greater than 10000 nM. The IC50 against SREBP-2 was 250 to 1000 nM.

Take `COc1ncc(OC)c(N2CCN(C(=O)CC[C@@H](C)[C@H]3CC[C@H]4[C@@H]5CC=C6C[C@@H](O)CC[C@]6(C)[C@H]5CC[C@]34C)CC2)n1` [Example 617, (R)-1-(4-(2,5-dimethoxypyrimidin-4-yl)piperazin-1-yl)-4-((3S,8S,9S,10R,13R,14S,17R)-3-hydroxy-10,13-dimethyl-2,3,4,7,8,9,10,11,12,13,14,15,16,17-tetradecahydro-1H-cyclopenta[a]phenanthren-17-yl)pentan-1-one]: on LXRβ, the EC50 was greater than 10000 nM. For the same molecule, the IC50 at SREBP-2 was less than 250 nM.

For the molecule `C#CC1(OC(C)C)CCN(C(=O)CC[C@@H](C)[C@H]2CC[C@H]3[C@@H]4CC=C5C[C@@H](O)CC[C@]5(C)[C@H]4CC[C@]23C)CC1` [Example 329, [(1R,3aS,3bS,7S,9aR,9bS,11aR)-7-hydroxy-9a,11a-dimethyl-1H,2H,3H,3aH,3bH,4H,6H,7H,8H,9H,9aH,9bH,10H,11H,11aH-cyclopenta[a]phenanthren-1-yl]-1-[4-ethynyl-4-(propan-2-yloxy)piperidin-1-yl]pentan-1-one], the EC50 at LXRβ was in the range of 1000 to 10000 nM. The same molecule displayed an IC50 at SREBP-2 of less than 250 nM.

On to `C[C@@H]1CCN(C(=O)CC[C@@H](C)[C@H]2CC[C@H]3[C@@H]4CC=C5C[C@@H](O)CC[C@]5(C)[C@H]4CC[C@]23C)C1` [Example 115, (R)-4-((3S,8S,9S,10R,13R,14S,17R)-3-hydroxy-10,13-dimethyl-2,3,4,7,8,9,10,11,12,13,14,15,16,17-tetradecahydro-1H-cyclopenta[a]phenanthren-17-yl)-1-((R)-3-methylpyrrolidin-1-yl)pentan-1-one], for which, at LXRβ, the EC50 was 250 to 1000 nM. At SREBP-2, the IC50 was less than 250 nM.

Regarding `C[C@H](CCC(=O)N1CCN(S(N)(=O)=O)CC1)[C@H]1CC[C@H]2[C@@H]3CC=C4C[C@@H](O)CC[C@]4(C)[C@H]3CC[C@]12C` [Example 359, 4-[(4R)-4-[(1R,3aS,3bS,7S,9aR,9bS,11aR)-7-hydroxy-9a,11a-dimethyl-1H,2H,3H,3aH,3bH,4H,6H,7H,8H,9H,9aH,9bH,10H,11H,11aH-cyclopenta[a]phenanthren-1-yl]pentanoyl]piperazine-1-sulfonamide], the EC50 on LXRβ was greater than 10000 nM. At SREBP-2, this molecule yielded an IC50 of less than 250 nM.

`C[C@H](CCc1ccccn1)[C@H]1CC[C@H]2[C@@H]3CC=C4C[C@@H](O)CC[C@]4(C)[C@H]3CC[C@]12C` [Example 124, (3S,8S,9S,10R,13R,14S,17R)-10,13-dimethyl-17-((R)-4-(pyridin-2-yl)butan-2-yl)-2,3,4,7,8,9,10,11,12,13,14,15,16,17-tetradecahydro-1H-cyclopenta[a]phenanthren-3-ol]: the EC50 at LXRβ was in the range of 250 to 1000 nM. The concentration for half-maximal inhibition (IC50) against SREBP-2 was less than 250 nM.

`C[C@H](CCC(=O)N(C)C)[C@H]1CC[C@H]2[C@@H]3CC=C4C[C@@H](F)CC[C@]4(C)[C@H]3CC[C@]12C` [Example 126, (R)-4-((3S,8S,9S,10R,13R,14S,17R)-3-fluoro-10,13-dimethyl-2,3,4,7,8,9,10,11,12,13,14,15,16,17-tetradecahydro-1H-cyclopenta[a]phenanthren-17-yl)-N,N-dimethylpentanamide]: on LXRβ, the EC50 is greater than 10000 nM. The molecule also returned an IC50 on SREBP-2 greater than 10000 nM.

Turning to `C[C@H](CCC(=O)N1CCC(N(C)C(=O)c2ccncc2)CC1)[C@H]1CC[C@H]2[C@@H]3CC=C4C[C@@H](O)CC[C@]4(C)[C@H]3CC[C@]12C` [Example 416, N-(1-((R)-4-((3S,8S,9S,10R,13R,14S,17R)-3-hydroxy-10,13-dimethyl-2,3,4,7,8,9,10,11,12,13,14,15,16,17-tetradecahydro-1H-cyclopenta[a]phenanthren-17-yl)pentanoyl)piperidin-4-yl)-N-methylisonicotinamide], the EC50 on LXRβ was greater than 10000 nM. At SREBP-2, this molecule returned an IC50 of less than 250 nM.

Take `C[C@H](CCC(=O)N1CCCOCC1)[C@H]1CC[C@H]2[C@@H]3CC=C4C[C@@H](O)CC[C@]4(C)[C@H]3CC[C@]12C` [Example 81, (R)-4-((3S,8S,9S,10R,13R,14S,17R)-3-hydroxy-10,13-dimethyl-2,3,4,7,8,9,10,11,12,13,14,15,16,17-tetradecahydro-1H-cyclopenta[a]phenanthren-17-yl)-1-(1,4-oxazepan-4-yl)pentan-1-one]: the EC50 on LXRβ was 250 to 1000 nM. This molecule registered an IC50 against SREBP-2 of less than 250 nM.

For `C[C@H](CCC(=O)N1CCN(C(C)(C)C)CC1)[C@H]1CC[C@H]2[C@@H]3CC=C4C[C@@H](O)CC[C@]4(C)[C@H]3CC[C@]12C` [Example 557, (4R)-4-[(1R,3aS,3bS,7S,9aR,9bS,11aR)-7-hydroxy-9a,11a-dimethyl-1H,2H,3H,3aH,3bH,4H,6H,7H,8H,9H,9aH,9bH,10H,11H,11aH-cyclopenta[a]phenanthren-1-yl]-1-(4-tert-butylpiperazin-1-yl)pentan-1-one], the EC50 on LXRβ is greater than 10000 nM. Also, the IC50 on SREBP-2 fell in the range of 250 to 1000 nM.

In the case of `C[C@@H](CCC(=O)N[C@H]1CC[C@@H](C(=O)N(C)C)CC1)[C@H]1CC[C@H]2[C@@H]3CC=C4C[C@@H](O)CC[C@]4(C)[C@H]3CC[C@]12C` [Example 641, (1S,4s)-4-((R)-4-((3S,8S,9S,10R,13R,14S,17R)-3-hydroxy-10,13-dimethyl-2,3,4,7,8,9,10,11,12,13,14,15,16,17-tetradecahydro-1H-cyclopenta[a]phenanthren-17-yl)pentanamido)-N,N-dimethylcyclohexane-1-carboxamide], the EC50 at LXRβ is greater than 10000 nM. At SREBP-2, the concentration for half-maximal inhibition (IC50) was less than 250 nM.

Take `C[C@H](OC(=O)C(=O)N1CCC1)[C@H]1CC[C@H]2[C@@H]3CC=C4C[C@@H](O)CC[C@]4(C)[C@H]3CC[C@]12C` [Example 155, (1S)-1-[(1S,3aS,3bS,7S,9aR,9bS,11aS)-7-hydroxy-9a,11a-dimethyl-1H,2H,3H,3aH,3bH,4H,6H,7H,8H,9H,9aH,9bH,10H,11H,11aH-cyclopenta[a]phenanthren-1-yl]ethyl 2-(azetidin-1-yl)-2-oxoacetate]: the EC50 on LXRβ is greater than 10000 nM. On SREBP-2, this molecule displayed an IC50 of 1000 to 10000 nM.

As for `CCc1cccnc1CC[C@@H](C)[C@H]1CC[C@H]2[C@@H]3CC=C4C[C@@H](O)CC[C@]4(C)[C@H]3CC[C@]12C` [Example 187, (3S,8S,9S,10R,13R,14S,17R)-17-((R)-4-(3-ethylpyridin-2-yl)butan-2-yl)-10,13-dimethyl-2,3,4,7,8,9,10,11,12,13,14,15,16,17-tetradecahydro-1H-cyclopenta[a]phenanthren-3-ol], at LXRβ, the EC50 is 250 to 1000 nM. For the same molecule, the IC50 on SREBP-2 is less than 250 nM.

Regarding `C[C@H](CCC(=O)N1CCN(C(=O)c2cn[nH]c2)CC1)[C@H]1CC[C@H]2[C@@H]3CC=C4C[C@@H](O)CC[C@]4(C)[C@H]3CC[C@]12C` [Example 310, (R)-1-(4-(1H-pyrazole-4-carbonyl)piperazin-1-yl)-4-((3S,8S,9S,10R,13R,14S,17R)-3-hydroxy-10,13-dimethyl-2,3,4,7,8,9,10,11,12,13,14,15,16,17-tetradecahydro-1H-cyclopenta[a]phenanthren-17-yl)pentan-1-one], the EC50 at LXRβ was greater than 10000 nM. Also, the half-inhibitory concentration (IC50) against SREBP-2 is less than 250 nM.

The values are drawn from patent publication US20230340011A1 (Asteroid Therapeutics, priority 2022, published 2023).
